Experimental data taken from patent US7141604B2, “Citalopram for the treatment of elevated blood pressure” (Egis Gyógyszergyár Rt., priority 2002, dated 2006).
Like-named read-outs stand apart in the source and are kept apart here.

Key:
[1] = test system: patients having unstable high blood pressure; conditions: human, in vivo, po
Description: In the study 13 patients having unstable high blood pressure were used who suffered from different anxiety disorders and depression.
Out of these patients 3 suffered from panic disorder, 1 from obsessive compulsive disorder and 9 from panic disorder with depression. On the beginning of treatment with the following antidepressants the patients were normotensive.
The patients were treated orally with 40 mg/day of paroxetine, or 100 mg/day of sertraline, or 20 mg/day of fluoxetine, or 150 mg/day of fluvoxamine. After 6 months 60% of the patients and after a period of 12–30 months 40% of the patients became hypertensive beside the normalization of their psychiatric state.
Thereafter the above mentioned antidepressants were substituted with citalopram. The oral dose of citalopram was 5 mg/day on the first week, 10 mg/day on the second week and 20 mg/day on the third week.

[2] = test system: hypertensive patients; assay: Study III: patients with high blood pressure but without anxiety or depression; assay type: in vivo; conditions: for outcome in 55 non-responder patients, antihypertensive added to citalopram 20 mg/day: after six weeks, betaloc oral 100 mg/day (40 patients) or captopril 2×12.5 mg/day (15 patients) in addition to citalopram
Description: In the test 102 hypertensive patients participated who complained of the following symptoms: attack like headache, dizziness, trembling, tremor, sweating, fear of death, sensation of heat and cold, and gastrointestinal complaints. The patients thought that their complaints were the consequence of panic attacks, but this was not supported by their psychiatric anamnesis in an unambiguous manner.
The patients were orally treated with citalopram in a dose of 5 mg/day on the first week, 10 mg/day on the second week and 20 mg/day on the third week.
From the 55 non-responder patients 40 individuals (39%) received betaloc in an oral dose of 100 mg/day and 15 patients (15%) received captopril in a dose of 2×12.5 mg/day, in addition to the administration of 20 mg/day of citalopram.

[3] = test system: hypertonic patients; assay: Study I: antihypertensive effect of citalopram in hypertonic patients with panic disorder; assay type: in vivo; conditions: for outcome in remaining 84 patients, antihypertensive added to citalopram 20 mg/day: after 6 weeks, oral metoprolol 2×50 mg/day (64 patients) or captopril 2×12.5 mg/day (20 patients) in addition to citalopram
Description: 254 patients participated in the study. All patients were hypertonic. In this group of hypertonics there were 120 patients suffering from panic disorder and agoraphobia, 70 patients suffering from panic disorder with agoraphobia and with depression, and 64 patients suffering from panic disorder with agoraphobia and with social phobia and/or with obsessive compulsive disorder (OCD).
The patients received citalopram in a dose of 5 mg/day on the first week, 10 mg/day on the second week and 20 mg/day on the third and fourth week.
The citalopram treatment of the remaining 84 patients was continued with a weekly oral dosage of 20 mg/day. From said 84 individuals 64 patients were additionally treated orally with metoprolol for 3 weeks in a dose of 2×50 mg/day and 20 patients received captopril in a dose of 2×12.5 mg/day.

[4] = in the course of treatment of depression; cited from earlier work
[5] = after 4 weeks treatment, citalopram 5/10/20/20 mg/day, of 254 hypertonic patients
[6] = after three weeks, oral citalopram 5/10/20 mg/day, of 102 hypertensive patients

CNCCC(Oc1ccc(C(F)(F)F)cc1)c1ccccc1 (centres unmarked) [fluoxetine]
patients who became hypertensive [1]: 40% | patients who became hypertensive ([1]; 6 months): 60%

CN[C@H]1CC[C@@H](c2ccc(Cl)c(Cl)c2)c2ccccc21 [sertraline]
patients who became hypertensive [1]: 40% | patients who became hypertensive ([1]; 6 months): 60%

COCCc1ccc(OCC(O)CNC(C)C)cc1 (centres unmarked) [betaloc]
outcome in 55 non-responder patients, antihypertensive added to citalopram 20 mg/day [2]: complete recovery

C[C@H](CS)C(=O)N1CCC[C@H]1C(=O)O [captopril]
outcome in remaining 84 patients, antihypertensive added to citalopram 20 mg/day [3]: complete recovery | outcome in 55 non-responder patients, antihypertensive added to citalopram 20 mg/day [2]: complete recovery

CN(C)CCCC1(c2ccc(F)cc2)OCc2cc(C#N)ccc21 (centres unmarked) [citalopram, 1-(3-dimethylamino-propyl)-1-(4-fluoro-phenyl)-1,3-dihydro-5-isobenzofurance-carbonitrile]
patients with complete recovery (became normotensive, symptoms of anxiety and affective disorders disappeared) [3, 5]: 170 patients | share of patients with complete recovery (became normotensive) [3, 5]: 67% | patients recovered and became normotensive [2, 6]: 47 patients | share of patients recovered and became normotensive [2, 6]: 46% | undesired side effect given in information leaflet [4]: hypotension may occur

COCCc1ccc(OCC(O)CNC(C)C)cc1 (centres unmarked) [metoprolol]
outcome in remaining 84 patients, antihypertensive added to citalopram 20 mg/day [3]: complete recovery

Fc1ccc([C@@H]2CCNC[C@H]2COc2ccc3c(c2)OCO3)cc1 [paroxetine]
patients who became hypertensive [1]: 40% | patients who became hypertensive ([1]; 6 months): 60%

COCCCC/C(=N\OCCN)c1ccc(C(F)(F)F)cc1 [fluvoxamine]
patients who became hypertensive [1]: 40% | patients who became hypertensive ([1]; 6 months): 60%
